Experimental data from US20230192878A1, “METHODS, THERAPIES AND USES FOR TREATING CANCER” (PFIZER INC., priority 2020, published 2023).

System: advanced multiple myeloma
Test: First in human Phase 1 clinical study: patient response per IMWG
Type: in vivo
Description: This Example illustrates an ongoing Phase 1 open-label, multicenter clinical study of PF-06863135 (BCMAxCD3 bispecific) as monotherapy and in combination with sasanlimab, lenalidomide or pomalidomide, in adult patients with advanced multiple myeloma who have relapsed from or are refractory to standard therapy. The study has been registered on ClinicalTrials.gov with identifier NCT03269136 and was first posted August 2017. Study results for Part 1 of the trial and additional arms for the study are described in this Example.
Part 1 of the Study is the […] single agent dose escalation arm at the dose levels of 0.1, 0.3, 1, 3, 10, 30, and 50 μg/kg Q1W by intravenous (IV) administration, and at the dose levels of 80, 130, 215, 360, 600 and 1000 μg/kg Q1W by subcutaneous (SC) administration. Upon reaching maximum tolerated dose (MTD)/maximum administered dose (MAD), patients can be treated at a dose level selected from the foregoing dose levels described in this paragraph, and below the MTD/MAD fora Q2W administration, both IV and SC, to further support the recommended phase 2 dose (RP2D) decision. For the study, dose limiting toxicity observation period is set at 21 days for Q1W dosing and 28 days for Q2W dosing. The treatment cycle, aka cycle, for Q1W dosing would be 3 weeks, and for Q2W dosing would be four weeks.
Clinical Outcome of Part 1 of the Study. As of 15 Apr. 2020, a total of 23 patients were enrolled in Part 1 of the study and had been treated with PF-06863135 administered intravenously (IV) at 0.1 (N=2), 0.3 (N=3), 1 (N=2), 3 (N=3), 10 (N=2), 30 (N=5), and 50 (N=6) μg/kg. As of Aug. 21, 2020, a total of 30 patients were enrolled in Part 1 of the study and had been treated with PF-06863135 administered subcutaneously (SC) at 80 (N=6), 130 (N=4), 215 (N=4), 360 (N=4), 600 (N=6) and 1000 (N=6) μg/kg. Safety and efficacy data were available for in 23 IV and 30 SC treated patients per IMWG (International Myeloma Working Group) criteria.
Part 1.1 of the Study is an alternative maintenance dose escalation arm for single agent PF-06863135. If excessive toxicity occurs or the maximum tolerated dose (MTD)/maximum administered dose (MAD) is reached at a dose level that is earlier than desired in Part 1 of the study described above, a priming dose will be administered one week prior to the day 1 cycle 1 administration of the dose (maintenance dose) at this dose level and for all subsequent dose levels in the dose escalation that may be initiated for Part 1.1. The priming dosing will be at a lower dose level than the maintenance dose.

[1] = 600 μg/kg priming, 1000 μg/kg Q1W SC, N = 7
[2] = 600 μg/kg priming, 1000 μg/kg Q2W SC, N = 13

PF-06863135: heterodimeric humanized full-length bispecific antibody with one BCMA binding arm and one CD3 binding arm
Patients who achieved a complete response (50 μg/kg IV): 1 patient | Patient Response: PR (patients) (215 μg/kg SC, N = 4): 1 | Patient Response: SD (patients) (215 μg/kg SC, N = 4): 1 | Patient Response: sCR (patients) (215 μg/kg SC, N = 4): 2 | Patient Response: PD (patients) (360 μg/kg SC, N = 4): 1 | Patient Response: VGPR (patients) (360 μg/kg SC, N = 4): 2 | Patient Response: sCR (patients) (360 μg/kg SC, N = 4): 1 | Patient Response: PD (patients) (600 μg/kg SC, N = 6): 1 | Patient Response: SD (patients) (600 μg/kg SC, N = 6): 1 | Patient Response: VGPR (patients) (600 μg/kg SC, N = 6): 2 | Patient Response: sCR (patients) (600 μg/kg SC, N = 6): 2 | Patient Response: CR (patients) [1]: 2 | Patient Response: PR (patients) [1]: 1 | Patient Response: VGPR (patients) [1]: 1 | Patient Response: PD (patients) [2]: 3 | Patient Response: PR (patients) [2]: 3 | Patient Response: SD (patients) [2]: 1 | Patient Response: VGPR (patients) [2]: 4 | Patient Response: CR (patients) (1000 μg/kg SC, N = 6): 1 | Patient Response: PD (patients) (1000 μg/kg SC, N = 6): 1 | Patient Response: PR (patients) (1000 μg/kg SC, N = 6): 1 | Patient Response: VGPR (patients) (1000 μg/kg SC, N = 6): 3 | Subjects who achieved best response of stable disease (IV cohorts (0.3-50 μg/kg)): Ten | Patients who achieved a minimal response (IV cohorts, at 3 μg/kg and 50 μg/kg IV): 2 patients | Clinical efficacy (highest dose levels of 600 and 1000 μg/kg SC): clinical efficacy was seen in most patients
